Data published in patent US20200138921A1, “METHODS OF PREVENTING AND TREATING DISEASES CHARACTERIZED BY SYNAPTIC DYSFUNCTION AND NEURODEGENERATION INCLUDING ALZHEIMER'S DISEASE” (The Trustees of Columbia University in the City of New York, priority 2017, published 2020).

Tests used:
PSD95 = experiment: Western blot of PSD95 in hippocampal neurons; type: cell-based, rat; conditions: neurons pretreated with 300 nM TOP, oAβ for 24 hours
Protocol: (§1) Whole frozen mouse hippocampi, human brain specimens, and cultured cells were homogenized in RIPA buffer (ThermoFisher) supplemented with protease and phosphatase inhibitor cocktail (ThermoFisher), using a Teflon dounce homogenizer and centrifuged at 14,000 rpm for 10 minutes at 4° C. Supernatants were collected, normalized by BCA assay (ThermoFisher), and prepared for loading using sample buffer (SB) 4× (ThermoFisher) and dithiothreitol (DTT) 10× (ThermoFisher).
To further test whether increasing Ube3A could rescue the effects of oAβ, cultured primary hippocampal neurons (14 DIV) were pretreated with 300 nM of TOP or control PBS. The neurons were then treated with oAβ for 24 hours, and whole cell lysates prepared for Western blot analysis, or fixed for microscopy.
Cells were also assessed for localization of PSD95 and NMDAR1, markers of postsynaptic terminals. Cells treated with TOP had increased levels of PSD95 and NMDAR1 (FIGS. 11B and 11C).

Ube3A [1] = experiment: Ube3A protein in hippocampus of wild-type mice after a single TOP injection; type: in vivo; conditions: single bilateral hippocampal injection of TOP 275 μg
Protocol: as §1
Controls were wild type mice injected with PBS.

wild-type mice = experiment: Morris water maze in wild-type mice; type: in vivo; conditions: single TOP injection 275 μg, vs PBS-injected mice
Protocol: (§2) Mice were trained to find a hidden platform in a circular pool of 1.10 m diameter located in a room with extra maze cues. The location of the platform ([…] diameter) was constant for each mouse during training and was placed 1 cm beneath the surface of the water, maintained at 24° C.±2° C. throughout the duration of the test. At the end of test, the mice were dried off and placed in a clean cage with extra paper towels to prevent hypothermia Animals were then monitored inside their cage until eating, drinking, and ambulating normally Mice were trained in sessions consisting of four trials a day for five consecutive days. Mice started from different quadrants on a random basis during each trial and all four quadrants were used on any given day. The maximum swimming time allowed on each trial was 60 seconds.
(§3) Probe trials (1 session: 1 trials/session) were conducted 24 hours after the last training trial. During the probe test the platform was removed and mice were free to swim in the pool for 60 seconds. Time spent in each quadrant was measured. Trial and probe test sessions were recorded and analyzed with a video tracking system (Noldus). After the probe, mice were tested in the visible test for two consecutive days, 2 sessions/day with 3 trials/session to assess whether the mice were able to locate a visible platform (its location varied between the three trials of the same session). […]

J20 mice = experiment: Morris water maze in J20 AD mice; type: in vivo; conditions: single TOP injection 275 μg
Excerpt: The J20 transgenic mouse line also used in the studies expresses a mutated human APP (hAPP: K670N/M671L and V717F) under the control of the platelet-derived growth factor promoter (Mucke et al. 2000). These mice have deficits in learning and memory, inhibition of long-term potentiation, loss of dendritic spines, profuse amyloid plaques, and increased phosphorylation of the tau protein. These mice also have increased RhoA-GTP activity and progressive decrease in spinal density when treated with oligomeric Aβ. See Pozueta et al. 2013.
as §2
as §3, with “session). The ability of the mice to locate a clearly visible platform was also tested in order to exclude differences in vision, swim speed, and motivation.” for “session).”

[2] = usual marketed dosages, daily for five days or weekly; cited from earlier work
Ube3A [3] = experiment: Immunoprecipitation of HA-Ube3A and phospho-tyrosine immunoblot in B35 cells; type: cell-based, rat; conditions: B35 cells overexpressing HA-tagged Ube3A, as early as 1 hour
Protocol: Hippocampal neuron cultures from both male and female rat embryos (E17-18) were prepared following a slightly modified version of the method of Brewer et al. 1996. Hippocampal neurons were kept in culture at 37° C. with 5% CO2 in Neurobasal medium (ThermoFisher) with B27 (ThermoFisher) supplement and Glutamax (ThermoFisher) and plated at a density of 2.5×10^5 cell/ml on dishes coated with poly-D-lysine (ThermoFisher). For the experiments, neurons were used after 14-21 days in vitro (DIV). Rat neuroblastoma B35 cells were cultured and maintained in DMEM (ThermoFisher) supplemented with 10% fetal bovine serum (FBS; Invitrogen) and Glutamax (ThermoFisher).
Cells were collected and homogenized with IP lysis buffer (ThermoFisher) supplemented with Halt protease and phosphatase inhibitor (ThermoFisher). Cell extracts were incubated overnight at 4° C. with 1.0 μg HA antibody (Cell Signaling) or mouse IgG (Cell Signaling) as a negative control Immunocomplexes were incubated with magnetic beads covalently coated with protein G (Invitrogen) on a rotator for 2 hours, at 4° C. The beads were then pelleted with a magnet and washed 3 times with 1× cell lysis buffer (Cell Signaling) supplemented with complete mini protease inhibitor mixture (Roche). The immunocomplexes were resuspended in cell lysis buffer, LDS-sample buffer (Invitrogen), […] dithiothreitol (DTT), and analyzed by Western blotting. […]

p53 = experiment: Western blot of p53 in hippocampal neurons; type: cell-based, rat; conditions: Aβ for 8-10 hours
Protocol: as §1
As observed in the Tg2576 mice hippocampi, the levels of Ube3A inversely correlated with the levels of Arc and Ephexin-5. To determine whether this correlation was also observed in hippocampal neurons, the cells were treated with Aβ for 8-10 hours, and whole cell lysates were collected for Western blot analysis.

GluR1 = experiment: Surface GluR1 in hippocampal neurons (biotinylated surface Western blot, immunostaining); type: cell-based, rat; conditions: hippocampal neurons treated with Aβ
Protocol: Cells were fixed in PFA (4%) in […] PBS for 10 minutes at room temperature. Permeabilization was performed using 0.4% Triton X-100 (Sigma) in PBS for 20 minutes. Then, cells were incubated in anti-GluR1 primary antibody (Millipore) in Superblock (Thermo Scientific) with 0.1% Triton X-100 for 12 hours at 4° C. Cells were washed with PBS, and then incubated in goat anti-mouse Alexa 568 in Superblock with 0.1% Triton X-100 for 1 hour at RT. Then cells were mounted onto glass slides using Gel Mount (Biomeda).
The consequences of upregulation of Arc and Ephexin-5 are well characterized. In the case of Arc, one its key function is to regulate postsynaptic trafficking of AMPA receptor subunits, and to regulate spine morphology and network stability (Korb and Finkbeiner 2011).

Lfc = experiment: Levels or activities of Lfc in hippocampal neurons; type: cell-based, rat; conditions: hippocampal neurons treated with oAβ (results not shown)

| Molecule | levels of PSD95 (PSD95) | persistence of increased Ube3A expression after the single injection (Ube3A [1]) | Ube3A expression in the hippocampus (Ube3A [1]; after 1 month) | memory (Morris Water Maze) (wild-type mice) | learning (Morris water maze latency to platform) (J20 mice) | memory (Morris water maze time in target quadrant) (J20 mice) | motor functions or motivation (J20 mice; speed and time to platform) | hematologic toxicity [2] | nonhematologic toxicity [2] | phospho-tyrosinated Ube3A (pTyr-Ube3A) (Ube3A [3]) | levels of p53 (p53) | levels of surface-expressed GluR1 subunit (GluR1) | levels or activities of Lfc (Lfc) |
| --- | --- | --- | --- | --- | --- | --- | --- | --- | --- | --- | --- | --- | --- |
| CC[C@@]1(O)C(=O)OCc2c1cc1n(c2=O)Cc2cc3c(CN(C)C)c(O)ccc3nc2-1 [TOP, topotecan] | increased | up to 5 months | sustained increase | significant enhancement | did not affect | significantly increased | no effect | reversible manageable | mild | – | – | – | – |
| oAβ: synthetic soluble oligomeric Aβ1-42 | – | – | – | – | – | – | – | – | – | significant increase | did not show any altered levels | significant decrease | no observation of any differences |
